Experimental data taken from US4766133A, “(Bezimidazol-2-yl)-pyridinium compounds” (priority 1985, dated 1988).
Read-outs that look alike come from different tables or passages of the source.

Assays:
[1] = system: indomethacin-induced lesions of the stomach; assay: anti-ulcer activity (indomethacin-induced lesions of the stomach); type: in vivo; conditions: Rattus norvegicus, po, read-out: Anti-ulcer, ED50
Method: The experimental procedure described hereinafter was used to determine the anti-ulcer activity:
Groups each comprising 8 male rats with a body weight of 130-150 g are used for each dosage of a test substance. Before the beginning of the experiment the animals receive no food for 24 hours, but receive water ad libitum. Various dosages of the substances to be tested (suspended in 0.5% tragacanth) or the vehicle alone (controls) are administered twice perorally, namely 1 hour before and 2 hours after the peroral administration of 20 mg/kg of indomethacin. […] The animals are killed 6 hours after the first administration of the substanoe under investigation (or of the vehicle alone). The rats which remain protected from the occurrence of macroscopically visible lesions to the mucous membrane of the stomach are counted.

[2] = acute toxicity (single oral administration to mice); conditions: mouse, in vivo, read-out: Toxicity, LD 50
Text: In the following Table there are given for a series of representative compounds of formula I the results of the testing with respect to their anti-ulcer activity and to their gastric secretion-inhibiting activity. Moreover, this Table contains data concerning the acute toxicity (LD50 in the case of single oral administration to mice).

[3] = system: gastric acid secretion stimulated by 4-methylhistamine; assay: gastric acid secretion-inhibiting activity (Heidenhain type pouch, 4-methylhistamine stimulated); type: in vivo, beagle hounds (dog); conditions: Canis lupus familiaris, read-out: Gastric acid secretion-inhibition, ED50
Method: The experimental procedure described hereinafter was used to determine the gastric acid secretion-inhibiting activity:
In the pouch there is fitted a steel cannula which is conducted externally through the abdominal wall. Before each experiment the animals receive no food for 18 hours, but receive water ad libitum. They are conscious and standing during the experiment and their gastric acid secretion is stimulated by the intravenous infusion of 4-methylhistamine, a selective agonist of the histamine H2 -receptors. The gastric acid production is determined in 15 minute fractions of the stomach pouch juioe. As soon as the gastric acid production has a constant value, the substances to be tested are administered orally as a dry powder filled into gelatine capsules.

[4] = male rats, p.o. twice, 1 h before and 2 h after 20 mg/kg indomethacin p.o., 50% of animals protected from lesions
[5] = conscious beagle hounds, Heidenhain type pouch, 4-methylhistamine i.v. infusion, oral dry powder in gelatine capsules, 50% inhibition

CCSSCc1c(C)c(OC)cc[n+]1-c1nc2ccc(C(F)(F)F)cc2[nH]1.[Cl-] [F, 2-[(Ethyldithio)methyl]-4-methoxy-3-methyl-1-[5-(trifluoromethyl)-2-benzimidazolyl]pyridinium chloride] showed an ED50 [1, 4] of 1.7 mg/kg, an LD50 [2] of 1250 to 2500 mg/kg and an ED50 [3, 5] of 1.6 mg/kg.
With COc1cc[n+](-c2nc3ccc(C(F)(F)F)cc3[nH]2)c(CSSc2ccccc2Cl)c1C.[Cl-] [E, 2-[[(o-Chlorophenyl)dithio]methyl]-4-methoxy-3-methyl-1-[5-(trifluoromethyl)-2-benzimidazolyl]pyridinium chloride] the ED50 [1, 4] was 2.1 mg/kg, the LD50 [2] was > 5000 mg/kg and the ED50 [3, 5] was 6 mg/kg.
Work on COc1cc[n+](-c2nc3ccc(C(F)(F)F)cc3[nH]2)c(CSSC[C@H](N)C(=O)O)c1C.[Cl-] [B, 2-[[[(R)-2-Amino-2-carboxyethyl]dithio]methyl]-4-methoxy-3-methyl-1-[5-(trifluoromethyl)-2-benzimidazolyl]pyridinium chloride] yielded an ED50 [1, 4] of 2.5 mg/kg, an LD50 [2] of 1250 to 2500 mg/kg and an ED50 [3, 5] of 2.8 mg/kg.
With CCCCCCSSCc1c(C)c(OC)cc[n+]1-c1nc2ccc(C(F)(F)F)cc2[nH]1.[Cl-] [D, 2-[(Hexyldithio)methyl]-4-methoxy-3-methyl-1-[5-(trifluoromethyl) -2-benzimidazolyl]pyridinium chloride] the ED50 [1, 4] was 1.9 mg/kg, the LD50 [2] was > 5000 mg/kg and the ED50 [3, 5] was 6.8 mg/kg.
Compound CCOC(=O)CC(SSCc1c(C)c(OC)cc[n+]1-c1nc2ccc(C(F)(F)F)cc2[nH]1)C(=O)OCC.[Cl-] (centres unmarked) [J, 2-[[[1,2-Bis-(ethoxycarbonyl)ethyl]dithio]methyl]-4-methoxy-3-methyl-1-[5-(trifluoromethyl)-2-benzimidazolyl]pyridinium chloride] has an ED50 [1, 4] of 2.4 mg/kg, an LD50 [2] of 1250 to 2500 mg/kg and an ED50 [3, 5] of 2.2 mg/kg.
Compound COc1cc[n+](-c2nc3cc(C(F)(F)F)ccc3[nH]2)c(CSSC[C@H](NC(=O)CC[C@H](N)C(=O)O)C(=O)NCC(=O)O)c1C [C, 2-[[[(R)-2-[(S)-4-Amino-4-carboxybutyramido]-2-[(carboxymethyl)carbamoyl]ethyl]dithio]methyl]-4-methoxy-3-methyl-1-[(5-trifluoromethyl)-2-benzimidazolyl]pyridinium chloride] has an ED50 [1, 4] of 3 mg/kg, an LD50 [2] of 1250 to 2500 mg/kg and an ED50 [3, 5] of 3 mg/kg.
For COc1cc[n+](-c2nc3cc4c(cc3[nH]2)C(C)(C)C(=O)C4(C)C)c(CSSCCC(N)C(=O)O)c1C.[Cl-] (racemic) [P, 2-[[[(RS)-3-Amino-3-carboxypropyl]dithio]methyl]-4-methoxy-3-methyl-1-(1,5,6,7-tetrahydro-5,5,7,7-tetramethyl-6-oxoindeno[5,6-d]imidazol-2-yl)pyridinium chloride], the ED50 [1, 4] was 1.9 mg/kg, the LD50 [2] was 312 to 625 mg/kg and the ED50 [3, 5] was 4.1 mg/kg.
Compound CCCSSCc1c(C)c(OC)cc[n+]1-c1nc2cc3c(cc2[nH]1)C(C)(C)C(=O)C3(C)C.[Cl-] [L, 4-Methoxy-3-methyl-2-[(propyldithio)methyl]-1-(1,5,6,7-tetrahydro-5,5,7,7-tetramethyl-6-oxoindeno[5,6-d]-imidazol-2-yl)pyridinium chloride] has an ED50 [1, 4] of 1.6 mg/kg, an LD50 [2] of 312 to 625 mg/kg and an ED50 [3, 5] of 3.4 mg/kg.
For CCOC(=O)[C@@H](N)CSSCc1c(C)c(OC)cc[n+]1-c1nc2cc3c(cc2[nH]1)C(C)(C)C(=O)C3(C)C.[Cl-] [M, 2-[[[(R)-2-Amino-2-(ethoxycarbonyl)ethyl]dithio]methyl]-4-methoxy-3-methyl-1-(1,5,6,7-tetrahydro-5,5,7,7-tetramethyl-6-oxoindeno[5,6-d]imidazol-2-yl)pyridinium chloride], the ED50 [1, 4] was 1.6 mg/kg, the LD50 [2] was 312 to 625 mg/kg and the ED50 [3, 5] was 4.6 mg/kg.
Work on CCSSCc1c(C)c(OC)cc[n+]1-c1nc2cc3c(cc2[nH]1)C(C)(C)C(=O)C3(C)C.[Cl-] [K, 2-[(Ethyldithio)methyl]-4-methoxy-3-methyl-1-(1,5,6,7-tetrahydro-5,5,7,7-tetramethyl-6-oxoindeno[5,6-d]-imidazol-2-yl)pyridinium chloride] yielded an ED50 [1, 4] of 2.3 mg/kg, an LD50 [2] of 312 to 625 mg/kg and an ED50 [3, 5] of 6.5 mg/kg.
Compound COc1cc[n+](-c2nc3cc(C(F)(F)F)ccc3[nH]2)c(CSSCCN)c1C [G, 2-[[(2-Aminoethyl)dithio]methyl]-4-methoxy-3-methyl-b 1-[5-(trifluoromethyl)-2-benzimidazolyl]pyridinium chloride] has an ED50 [1, 4] of 2.3 mg/kg, an LD50 [2] of 312 to 625 mg/kg and an ED50 [3, 5] of 1.5 mg/kg.
Work on COc1cc[n+](-c2nc3cc4c(cc3[nH]2)C(C)(C)C(=O)C4(C)C)c(CSSCCO)c1C.[Cl-] [O, 2-[[(2-Hydroxyethyl)dithio]methyl]-4-methoxy-3-methyl-1-(1,5,6,7-tetrahydro-5,5,7,7-tetramethyl-6-oxoindeno[5,6-d]imidazol-2-yl)pyridinium chloride] yielded an ED50 [1, 4] of 2.3 mg/kg, an LD50 [2] of 312 to 625 mg/kg and an ED50 [3, 5] of 2.9 mg/kg.
In the case of CCCSSCc1c(C)c(OC)cc[n+]1-c1nc2ccc(C(F)(F)F)cc2[nH]1.[Cl-] [A, 2-[(propyldithio)methyl]-4-methoxy-3-methyl-1-[5-(trifluoromethyl)-2-benzimidazolyl]pyridinium chloride], the ED50 [1, 4] was 1.2 mg/kg, the LD50 [2] was > 5000 mg/kg and the ED50 [3, 5] was 1.5 mg/kg.
Compound COc1cc[n+](-c2nc3cc4c(cc3[nH]2)C(C)(C)C(=O)C4(C)C)c(CSSc2cccc(Cl)c2)c1C [H, 2-[[(m-Chlorophenyl)dithio]methyl]-4-methoxy-3-methyl-1-(1,5,6,7-tetrahydro-5,5,7,7-tetramethyl-6-oxoindeno[5,6d]imidazol-2-yl)pyridinium chloride] has an ED50 [1, 4] of 1.8 mg/kg, an LD50 [2] of 1250 to 2500 mg/kg and an ED50 [3, 5] of 6.2 mg/kg.
Work on COc1cc[n+](-c2nc3cc4c(cc3[nH]2)C(C)(C)C(=O)C4(C)C)c(CSSC2CCCC2)c1C.[Cl-] [Q, 2-[(Cyclopentyldithio)methyl]-4-methoxy-3-methyl-1-(1,5,6,7-tetrahydro-5,5,7,7-tetramethyl-6-oxoindeno[5,6-d]imidazol-2-yl)pyridinium chloride] yielded an ED50 [1, 4] of 1.6 mg/kg, an LD50 [2] of 312 to 625 mg/kg and an ED50 [3, 5] of 4.9 mg/kg.
COc1cc[n+](-c2nc3cc4c(cc3[nH]2)C(C)(C)C(=O)C4(C)C)c(CSSC[C@H](N)C(=O)O)c1C.[Cl-] [I, 2-[[[(R)-2-Amino-2-carboxyethyl]dithio]methyl]-4-methoxy-3-methyl-1-(1,5,6,7-tetrahydro-5,5,7,7-tetramethyl-6-oxoindeno[5,6-d]imidazol-2-yl)pyridinium chloride] gave an ED50 [1, 4] of 2.3 mg/kg, an LD50 [2] of 312 to 625 mg/kg and an ED50 [3, 5] of 3.9 mg/kg.
With COc1cc[n+](-c2nc3cc4c(cc3[n-]2)C(C)(C)C(=O)C4(C)C)c(CSSCCN(C)C)c1C [N] the ED50 [1] was 1.5 mg/kg and the ED50 ([3]; po) was 3.7 mg/kg.
